Measured values from US20170369475A1, “Flibanserin Hydrate” (Sandoz AG, priority 2016, published 2017).
Entries after “also recorded” stand apart in the source; their conditions may differ.

Test: Gravimetric moisture sorption (GMS)
Assay type: physicochemical
Conditions: 25±0.1° C.
Description: Moisture sorption isotherms were recorded with an SPSx-1 μ moisture sorption analyzer (ProUmid, Ulm). The measurement cycle was started at ambient relative humidity (RH) of 30%. RH was then decreased to 5% in 5% steps, followed by a further decrease to 3% and to 0%. […] Finally, RH was increased to ambient relative humidity of 30% in 5% steps.
The time per step was set to a minimum of 2 hours and a maximum of 6 hours. If an equilibrium condition with a constant mass of ±0.01% within 1 hour was reached before the maximum time for all examined samples the sequential humidity step was applied before the maximum time of 6 hours. If no equilibrium was achieved the consecutive humidity step was applied after the maximum time of 6 hours. The temperature was 25±0.1° C.
Therefore, flibanserin hydrate of the present invention can be assigned as being non-hygroscopic.

## O=c1[nH]c2ccccc2n1CCN1CCN(c2cccc(C(F)(F)F)c2)CC1 [flibanserin hydrate]
GMS, 0 to 95% RH
  hysteresis between sorption and desorption isotherms: no significant hysteresis
GMS, 0 to 95% RH, hydrate
  hygroscopicity / water uptake or loss (in words): neither significant water uptake nor loss; also recorded: non-hygroscopic
After sorption/desorption cycle 0-95-0% RH
  physical form after the GMS experiment (PXRD): same PXRD
sorption/desorption cycle 0-95% RH
  mass difference between 0 and 95% RH (equilibrium mass change, GMS): 0.2 weight %
